# Laboratory results from publication PMC12578646, “Prodrug florfenicol amine is activated by intrinsic resistance to target Mycobacterium abscessus” (Nature Microbiology, 2025).
# Columns and labels:
# Eis2 [1] = biological target: T1, Eis2 (Mycobacteroides abscessus, UniProt B1MKV6); assay: Michaelis-Menten acetylation kinetics with purified Eis2, DTNB free-thiol assay (control substrate); assay type: biochemical
# T1 construct: gene MAB_4532c; Eis2–pET30a, TEV cleavable N-terminal 6 histidine tag (removed)
# M. abscessus WT = tested on: T2, M. abscessus WT; assay: microbe, parasite or virus in culture; design: broth microdilution MIC according to CLSI, read at 14 days; conditions: Mycobacteroides abscessus, 336 h, read-out: WT MIC (µg/mL), day 14
# T2 construct: ATCC 19977
# in vitro = assay: in vitro; design: HepG2 cytotoxicity, Cell-Titer Glo; conditions: human, hepg2 cells; read-out: HepG2 Cytotoxicity IC50
# Description: (§1) MPS and cytotoxicity of experimental compounds and PTC-targeting controls against HepG2 (liver hepatocellular carcinoma cells ATCC HB-8065) were performed as previously described without any modifications (see ref. [56] for MPS assay and ref. [78] for cytotoxicity assay). […] Results reported as mean ± s.d., n = 3 biological replicate. The requirement for FF-NH2 to be activated by Eis2 led us to hypothesize that it would lack the mitochondrial protein synthesis (MPS) inhibition liability of other PTC-targeting agents. We therefore profiled FF-NH2, FF-ac and other analogues for MPS inhibition activity.
# [2] = tested on: HepG2 mitochondrial protein synthesis; assay: cells; design: mitochondrial protein synthesis inhibition in HepG2 cells; conditions: Homo sapiens, read-out: MPS IC50
# Description: as §1, with “MPS inhibition and cytotoxicity assays MPS and” for “MPS and”
# Eis2 [3] = biological target: T1, Eis2; assay: Michaelis-Menten acetylation kinetics with purified Eis2, DTNB free-thiol assay; assay type: biochemical
# [4] = tested on: NCC[C@H](O)C(=O)N[C@@H]1C[C@H](N)[C@@H](O[C@H]2O[C@H](CN)[C@@H](O)[C@H](O)[C@H]2O)[C@H](O)[C@H]1O[C@H]1O[C@H](CO)[C@@H](O)[C@H](N)[C@H]1O; assay: purified protein, by the assay type; design: Eis2 acetyltransferase kinetics, Michaelis-Menten fit for substrate
# From the text: Consistent with previous findings, the aminoglycoside controls AMK and [compound left out] were also shown as substrates of Eis2 (ref. [47]), as well as CAM-NH2 and TAM-NH2. […] These findings highlight how specific chemical modifications to antibiotics govern substrate specificity and antimicrobial efficacy.
# T1 sequence (B1MKV6 entry or part of it): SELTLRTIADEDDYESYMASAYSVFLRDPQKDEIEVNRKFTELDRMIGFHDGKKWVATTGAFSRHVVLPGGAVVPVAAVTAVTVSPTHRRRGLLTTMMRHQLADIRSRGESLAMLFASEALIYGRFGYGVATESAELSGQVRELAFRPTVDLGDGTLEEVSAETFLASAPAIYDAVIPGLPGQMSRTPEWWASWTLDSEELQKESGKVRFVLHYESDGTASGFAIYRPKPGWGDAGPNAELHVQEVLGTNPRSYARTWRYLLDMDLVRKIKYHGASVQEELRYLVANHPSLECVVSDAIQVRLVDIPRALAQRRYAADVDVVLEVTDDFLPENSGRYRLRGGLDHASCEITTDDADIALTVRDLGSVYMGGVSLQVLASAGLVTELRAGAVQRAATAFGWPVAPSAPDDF
IC50 [2] [µM],Compound,MIC (M. abscessus WT) [µg/mL],CC50 at 72 h (in vitro) [µM],also measured
,"NCC[C@H](O)C(=O)N[C@@H]1C[C@H](N)[C@@H](O[C@H]2O[C@H](CN)[C@@H](O)[C@H](O)[C@H]2O)[C@H](O)[C@H]1O[C@H]1O[C@H](CO)[C@@H](O)[C@H](N)[C@H]1O [AMK, amikacin]",4 to 8,,"Michaelis-Menten acetylation kinetics with purified Eis2, DTNB free-thiol assay (Eis2 [1]): the aminoglycoside controls AMK and hygromycin B were also shown as substrates of Eis2"
,CC[C@H]1OC(=O)[C@H](C)[C@@H](O[C@H]2C[C@@](C)(OC)[C@@H](O)[C@H](C)O2)[C@H](C)[C@@H](O[C@@H]2O[C@H](C)C[C@H](N(C)C)[C@H]2O)[C@](C)(O)C[C@@H](C)CN(C)[C@H](C)[C@@H](O)[C@]1(C)O [AZITH],> 32,,
> 100,"N[C@H](CO)[C@H](O)c1ccc([N+](=O)[O-])cc1 [CAM-NH2, chloramphenicol amine]",,> 200,
,CC[C@H]1OC(=O)[C@H](C)[C@@H](O[C@H]2C[C@@](C)(OC)[C@@H](O)[C@H](C)O2)[C@H](C)[C@@H](O[C@@H]2O[C@H](C)C[C@H](N(C)C)[C@H]2O)[C@](C)(OC)C[C@@H](C)C(=O)[C@H](C)[C@@H](O)[C@]1(C)O [CLR],2,,
5.5 ± 2.5,O=C(N[C@H](CO)[C@H](O)c1ccc([N+](=O)[O-])cc1)C(Cl)Cl [Chloramphenicol],,> 200,
,CC[C@H]1OC(=O)[C@H](C)[C@@H](O[C@H]2C[C@@](C)(OC)[C@@H](O)[C@H](C)O2)[C@H](C)[C@@H](O[C@@H]2O[C@H](C)C[C@H](N(C)C)[C@H]2O)[C@](C)(O)C[C@@H](C)C(=O)[C@H](C)[C@@H](O)[C@]1(C)O [ERY],> 32,,
4.7 ± 1.7,"CC(=O)N[C@H](CF)[C@H](O)c1ccc(S(C)(=O)=O)cc1 [FF-ac, florfenicol acetyl]",,> 200,
1.2 ± 0.2,CS(=O)(=O)c1ccc([C@@H](O)[C@@H](CF)NC(=O)C(Cl)Cl)cc1 [Florfenicol],,> 200,
,CC(=O)NC[C@H]1CN(c2ccc(N3CCOCC3)c(F)c2)C(=O)O1 [LZD],8,,
6.2 ± 1.6,CC(=O)NC[C@H]1CN(c2ccc(N3CCOCC3)c(F)c2)C(=O)O1 [Linezolid],,> 200,
,"O=C1CN(/N=C/c2ccc([N+](=O)[O-])o2)C(=O)N1 [Nitrofurantoin, nitrofurantoin]",,6.8 ± 0.3,
,CN[C@@H]1[C@H](O)[C@H](NC)[C@H]2O[C@@]3(O)C(=O)C[C@@H](C)O[C@H]3O[C@@H]2[C@H]1O [SPC],512,,
> 100,"CS(=O)(=O)c1ccc([C@@H](O)[C@H](N)CO)cc1 [TAM-NH2, thiamphenicol amine]",,> 200,
1.4 ± 0.7,CS(=O)(=O)c1ccc([C@@H](O)[C@@H](CO)NC(=O)C(Cl)Cl)cc1 [Thiamphenicol],,> 200,
,"CSc1ccc2c(c1)N(CCC1CCCCN1C)c1ccccc1S2 (stereo not shown) [Thioridazine, thioridazine]",,6.6 ± 0.3,
,Eis2 (Mycobacteroides abscessus ATCC 19977),,,Km [4]: 232.6 ± 26 µM; Vmax [4]: 6 µM/min; kcat [4]: 4.7 ± 0.5 s⁻¹; kcat/Km [4]: 20000 ± 320 M⁻¹ s⁻¹

Compound,IC50 [2] [µM],MIC (M. abscessus WT) [µg/mL],CC50 at 72 h (in vitro) [µM],also measured
"CS(=O)(=O)c1ccc([C@@H](O)[C@H](N)CF)cc1 [FF-NH2, florfenicol amine]",> 100,62.5 to 125,> 200,"Michaelis-Menten acetylation kinetics with purified Eis2, DTNB free-thiol assay (Eis2 [3]): kcat/KM 6.7 × 10^3 ± 5.1 × 10^2"
